The values that follow come from a melting point compilation (Tetko et al.; mined from patent text by program, amines drawn as free bases though some values may be those of a salt).

The melting point is the temperature of the solid-liquid transition.

`CC(C)(C)c1ccc(CO)cc1NC(=O)CC1c2ccccc2Oc2ccccc21`: the melting point was in the range of 137 to 138 °C.
For `Cc1ccccc1COc1cccnc1NC(=S)Nc1ccccc1` the value was 150 to 151 °C; for `CCOC(=O)c1c(C(F)F)nc(C(F)(F)F)c(C(=O)OCC)c1Cl`, 35 to 40 °C; for `CC(=O)Oc1c(C(C)(C)C)cc2occc2c1C(C)(C)C`, 87.7 °C.
For `Nc1c(SC(F)(F)F)c(C(=O)O)nn1-c1c(Cl)cc(C(F)(F)F)cc1Cl` the value was 199 °C; for `FC(F)(F)c1n[nH]c2ccc(Br)cc12`, 168 to 169 °C; for `Cc1cc(-c2sc(N3CCN(CC4CC4)C3=O)nc2C)n[nH]1`, 231 to 233 °C.
For `c1cnc2c(c1)NCC2` the value was 63 °C; for `CCCCS(=O)(=O)Nc1ccccc1Oc1ccc2ncccc2c1`, 131 to 133 °C; for `CC1(C)CCC(C)(C)c2cc(-c3cc(-c4ccccc4O)ccc3C(=O)O)ccc21`, 264 to 267 °C.
For `Cc1ccc(-n2nc3c4cc(Br)ccc4[nH]c(=O)n3c2=O)cc1`, the melting point was found to be 369 °C.
The same measure for `COC(=O)Nc1ccc(N)c(NCCO)c1`: 240 to 242 °C; for `C=CCc1c(O)ccc2c1CCC(=O)N2`: 236 to 239 °C.
Take `CC(C(=O)NCC(COC(=O)C(C)(C)C)Cc1ccc(C(C)(C)C)cc1)c1ccc(NS(C)(=O)=O)c(F)c1` (configuration not stated): the melting point was 44 to 46 °C.
The same measure for `O=c1[nH]nc2c3c(cccc13)Oc1ccc(COP(=O)(O)O)cc1-2`: 246 to 252 °C; for `O=C1OCCC23C(=CC=CC12)C1=C(C=C3c2ccc3c(c2)OCO3)OCO1` (configuration not stated): 263 to 266 °C; for `O=C(O)COc1cc2cc(C3CCCC3)sc2c(Cl)c1Cl`: 173 to 174 °C.
For `CNS(=O)(=O)c1ccc(-c2cccc(-c3nc(C(C)C)[nH]c3-c3cccc(C)n3)c2)cc1` the value was 96 to 100 °C; for `COc1cc(CN2CCN(C[C@@H](C)O)CC2)ccc1-c1nc2c(N[C@H]3[C@@H](C(N)=O)[C@@H]4C=C[C@H]3C4)c(Cl)cnc2[nH]1`, 157 to 159 °C.
For `CC(C)(NCc1ncc[nH]1)c1ccc(Cl)cc1` the value was 164 to 165 °C; for `COC(=O)c1ccccc1C(=O)OCC1CN(C(=O)Oc2ccccc2)CCC1c1ccc(F)cc1` (configuration not stated), 139 to 141 °C; for `CC(C)(c1ccncn1)C(O)(Cn1cncn1)c1ccc(F)cc1F` (configuration not stated), 126 to 127 °C.
`CS(=O)(=O)c1ccc(-c2cc(C(=O)CO[N+](=O)[O-])nn2-c2ccccn2)cc1`: the melting point was 82 to 84 °C.
The same measure for `CCCc1c(O)ccc2oc(C(=O)OCC)cc12`: 99 to 101 °C; for `N#Cc1c(N2CCN(C(=O)c3cccs3)CC2)c2cc(F)cnc2n(CC(=O)c2ccccc2)c1=O`: 262 °C.
The molecule `Cc1oc(-c2ccccc2)nc1COc1ccc(CN(O)C(=O)NO)cc1` registered a melting point of 194 to 195 °C.
As for `CC(=O)Nc1nc2c(Oc3cc(-c4ccc(C(F)(F)F)cc4Br)ncn3)cccc2s1`, the melting point is 260 °C.
The same measure for `COc1ccc(C2SCCCS2)cc1OC`: 99 to 101 °C; for `C[C@@H](NC(=O)c1csc(-c2cccnc2)n1)[C@](O)(Cn1cncn1)c1ccc(F)cc1F`: 182 to 183 °C; for `O=C(Nc1ccc(C(=O)N2C[C@@H]3CCCN3S(=O)(=O)c3ccccc32)cc1)c1ccccc1-c1ccccc1`: 142 to 143 °C.
The same measure for `CCN1c2ccccc2N(C)C(=O)c2cccnc21`: 106 to 111 °C; for `CCc1n[nH]c(CC)c1CCCCCCOc1ccc(Br)cc1`: 31 to 33 °C.
For `COc1ccccc1C(=O)NC1CCCn2c1nc(-c1ccncc1)cc2=O` (racemic) the value was 155 to 157 °C; for `CON1CC(c2ccc(OCc3ccccc3)cc2)CC1=O` (configuration not stated), 92 to 97 °C.
Consider `O=C1C(=O)N(c2cccc3ccccc23)C(=O)N1c1ccccc1`, for which the melting point fell in the range of 105 to 108 °C.
For `Cc1cccc(CC(=S)Nc2ccccc2C(=O)O)c1` the value was 148 to 150 °C; for `Cc1sc2cc(C3=NCCS3)[nH]c2c1N(C)S(=O)(=O)c1cccs1`, 140 °C; for `CCN(CC)c1ccc2c(-c3ccc(C#Cc4ccccc4)cc3)cc(=O)oc2c1`, 136 to 138 °C.
For `CC1(O)CC(=O)OC(CCc2ccc(Cl)cc2)C1Br` (configuration not stated), the melting point fell in the range of 116 to 119 °C.
As for `CCCc1c(O)c(C(C)=O)cc2c(=O)cc(C(=O)OC)n(CC)c12`, the melting point was 121 to 123 °C.
Molecule `CCOC(=O)CC(=O)c1ccc(-c2ccc(Cl)cc2)cc1` had a melting point of 45 to 50 °C.
The same measure for `CCCn1c(=O)c(-c2ccccc2)c2n(c1=O)CC=CS2`: 142 to 144 °C; for `FC(F)(F)c1ccc2c(c1)C(Cl)Cc1c(Cl)cccc1S2` (configuration not stated): 88 to 90 °C.
For `CCOC(=O)c1[nH]c2cc(Cl)cc(Cl)c2c1NS(=O)(=O)c1ccccc1` the value was 245 to 247 °C.
The molecule `CN1CCc2c(Cl)ccc3c4c(n(c23)CC1)CCCCC4` gave a melting point of 132 to 134 °C.
The same measure for `COc1cc2c(cc1Cl)NC(=O)c1ccccc1S2`: 280 to 283 °C.
As to `COc1cc(NC(C)=O)c(Cl)cc1C(=O)[NH+]([O-])C1CCN(CC2CCCCC2)CC1` (configuration not stated), the melting point lay within 206 to 208 °C.
The same measure for `COCCOCCN1C(=O)C2(COc3cc4c(cc32)OCCO4)c2cc3c(cc21)OCCO3` (configuration not stated): 146 to 148 °C; for `O=C(O)c1ccc(O)c(Oc2ccccc2)c1`: 181 to 183 °C.
Take `CC1(C)COC(c2ccc3c(c2)C(=O)c2ccccc2CO3)=N1`: the melting point came out at 122 °C.
`COC(=O)[C@H]1CC[C@H](NC(=O)c2cc(-c3ccc(C#N)cc3)nnc2N2CCOCC2)CC1` yielded a melting point of 269 to 271 °C.
In the case of `COC1(C2=NCCN2)COc2c(F)cccc2O1` (configuration not stated), the melting point is greater than 260 °C.
The same measure for `CN(C)[C@H]1CCN(c2c(-c3ccccc3)cc(C#N)c3oc(C(C)(C)C)cc23)C1`: 46 to 48 °C.
In turn, `COC(=O)Cn1c(C)cc(Cc2ccsc2)c([N+](=O)[O-])c1=O` displayed a melting point of 157 to 158 °C.
`COc1ccc(-n2cc(-c3cccc(C(=O)O)n3)cn2)cc1`: the melting point lay within 122 to 123 °C.
The same measure for `C=Cc1cc(-c2cccnc2)no1`: 60 to 64 °C; for `CCOC(=O)c1ccc2c(c1)S[C@@H](c1ccc(OC)cc1)[C@@H](OC(C)=O)C(=O)N2CCN(C)C` (racemic): 167 to 171 °C.
For `CCCn1nc2c(N)nc3ccccc3c2c1CCNC(=O)NCC` the value was 206 to 207 °C.
The same measure for `O=C1CCCN1C(=O)Oc1ccccc1[N+](=O)[O-]`: 135 to 136 °C.
The molecule `CCc1[nH]n(C2CCCC2)c2nc(=S)[nH]c(=O)c1-2` had a melting point of 248 to 250 °C.
The same measure for `CCCc1nc(N(C)c2ccccc2)n2ncc(C(=O)c3ccccc3Cl)c2n1`: 149 to 151 °C; for `CCOC(=O)COc1cc(OC)c2c(c1)OC1(CCCC1)CC2=O`: 81 to 82 °C; for `CCCCc1nc2c(N)nc3cccnc3c2n1CCCCNC(=O)OC(C)(C)C`: 148 to 150 °C.
As to `C=C1CC(c2cnc(-c3ccccc3Cl)s2)N(C)C1=O` (configuration not stated), the melting point was 96 to 105 °C.
Molecule `CS(=O)(=O)c1ccc(-c2ccc(C=O)n2-c2ccc(F)cc2)cc1` displayed a melting point of 111 to 112 °C.
The same measure for `COc1ccc(O)c(C=O)c1OC`: 53 to 54 °C; for `O=C(COc1ccc(Cl)cc1Cl)Nc1ccnn1-c1c(Cl)cc(C(F)(F)F)cc1Cl`: 167 to 180 °C.
The same measure for `CC(O)CCc1ccc(-c2ccccc2)cc1` (configuration not stated): 74 to 75 °C; for `CCCCCCCCCCCCCCCCOc1nc2ccc(C)cc2c(=O)o1`: 67 °C; for `COc1cc(-c2nc(N3CCN(C(C)=O)CC3)c3c(C)c(C#N)sc3n2)cc(OC)c1OC`: 211 to 213 °C.
On to `CS(=O)(=O)OC[C@@H]1NC(=O)[C@@H]1n1c(-c2ccccc2)c(-c2ccccc2)oc1=O` (relative stereo), for which the melting point is 185 to 188 °C.
`CC(C)N(CCCCOc1ccc(-c2nnc(CSCCOc3ccccc3)o2)cc1)C(C)C`: the melting point lay within 42 to 44 °C.
The same measure for `CCOC(=O)c1ccc2c3ccccc3n(Cc3ccccc3)c2c1C`: 79 to 80 °C.
Regarding `CC(=O)OC1CSC(Oc2ccc3nnn(C)c3c2)C(OC(C)=O)C1OC(C)=O` (configuration not stated), the melting point stood at 143 °C.
For `CN1CCN(CCOc2ccc(Nc3ncc4ccc(-c5cccnc5)n4n3)cc2)CC1` the value was 107 to 110 °C; for `NC(=O)c1c(I)c(C(=O)N(CC(O)CO)CC(O)CO)c(I)c(N2CCCCC2=O)c1I` (configuration not stated), 214 to 219 °C; for `Cn1ncc(C(=O)O)c1C(=O)Nc1ccn2nc(-c3ccccc3)nc2c1`, greater than 300 °C.
For `CCCCCCCN(C[C@H]1CCC[C@H](CN(CCCCCCC)C(=O)Nc2ccc(N(C)C)cc2)C1)C(=O)Nc1ccc(N(C)C)cc1` (relative stereo) the value was 121 to 126 °C.
For `O=S1(=O)c2cccc3cccc(c23)N1CCCN1CCN(c2cccc(O)c2)CC1` the value was 175 °C.
As to `O=C(c1ccccc1)N1CCN(c2ccccc2)CCN1C(=O)c1ccccc1`, the melting point was 190 to 192 °C.
The same measure for `CN(C)CCCn1cc(C2=C(c3c[nH]c4ccccc34)C(=O)N(C)C2=O)c2ccccc21`: 86 to 90 °C.
Consider `CCCc1nc(SSc2nc(CCC)n(-c3ccc([N+](=O)[O-])cc3)n2)nn1-c1ccc([N+](=O)[O-])cc1`, for which the melting point worked out at 172 °C.
As to `COc1ccc(Br)c(O)c1C(=O)O`, the melting point lay in the range of 143 to 144 °C.
For `CCOC(=O)c1c(O)c2ccccc2[nH]c1=O` the value was 173 °C; for `c1ccc(CN2CC3OC(C4OCCO4)(C2)c2ccccc23)cc1` (configuration not stated), 78 to 79.5 °C; for `O=C(O)c1ccc(OCCNC(=O)c2ccc(Cl)cc2)cc1`, 219 to 220 °C.
Molecule `CC(C)(C)OC(=O)c1sc(Oc2ccc3c(c2)OCO3)c2c1CCc1cnoc1-2` yielded a melting point of 165 to 166 °C.
